# Literature values in patent publication US20050159471A1, “Compositions of a benzenesulfonamide or methylsulfonylbenzene cyclooxygenase-2 selective inhibitor and a cholinergic agent for the treatment of reduced blood flow or trauma to the central nervous system” (Pharmacia Corporation, priority 2003, published 2005).
# Conditions: administered to subjects following stroke
substance,measurement,value
citicoline,behavioral parameters,improvement in behavioral parameters
same,infarction volume,decrease in infarction volume
